Experimental data reported in patent publication US11958861B2, “Spirocyclic lactams as JAK2 V617F inhibitors” (Incyte Corporation, priority 2021, dated 2024).
Structures can show the parent of a compound that is named as a salt.

How the values were obtained:
[1] = target: T1, pseudo-kinase domain (JH2, amino-acids 536-812) of human Wild Type JAK2 (Homo sapiens, UniProt O60674, F794H/W659A/W777A); assay: JAK2 LanthaScreen JH2-WT Binding Assay; conditions: 1 hour at 25° C.
T1 construct: pseudo-kinase domain (JH2, amino-acids 536-812 with 3 surface mutations W659A, W777A, F794H); purchased BPS Bioscience 79463; host or cells: baculovirus expression system
Procedure, shortened: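 Binding was measured by TR-FRET between streptavidin-Tb (0.25 nM) on biotinylated JH2 (0.145 nM) and 50 nM fluorescent tracer, with compound dose series, 1 h at 25° C; IC50 fitted.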

[2] = target: T2, pseudo-kinase domain (JH2, amino-acids 536-812) of human V617F mutant JAK2 (Homo sapiens, UniProt O60674, F794H/V617F/W659A/W777A); assay: JAK2 LanthaScreen JH2-V617F Binding Assay; conditions: 1 hour at 25° C.
T2 construct: pseudo-kinase domain (JH2, amino-acids 536-812 with 3 surface mutations W659A, W777A, F794H); purchased BPS Bioscience 79498; host or cells: baculovirus expression system
Procedure, shortened: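 Biotinylated His-Avi-tagged construct, baculovirus-expressed, at 0.26 nM; compounds competed against 50 nM fluorescent JH2 tracer with 0.25 nM streptavidin-Tb in Tris pH 7.5 buffer. Non-specific binding defined with 2 mM ATP. Read after 1 h at 25° C by TR-FRET; IC50 from four-parameter fit.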

[3] = target: T3, catalytic domain (JH1, amino acids 826-1132) of human JAK2 (Homo sapiens, UniProt O60674); assay: JAK2 LanthaScreen JH1 Binding Assay; conditions: 2 hours at 25° C.
T3 construct: catalytic domain (JH1, amino acids 826-1132) of human JAK2; purchased Carna Biosciences 08-445-20N; host or cells: baculovirus expression system
Procedure, shortened: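 FLAG-tagged biotinylated JAK2 JH1 (1.5 nM) incubated with compounds, 50 nM fluorescent tracer and 0.5 nM streptavidin-Tb in Tris pH 7.5 buffer with MgCl2, BSA, DTT, 2 h at 25 °C.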

[4] = target: T4, catalytic domain (JH1, amino acids 808-1132) of human JAK2 (Homo sapiens, UniProt O60674); assay: JAK2 HTRF Enzyme Activity Assay; type: biochemical; conditions: ATP 30 μM, read-out: ENZ 30UMATP
T4 construct: catalytic domain (JH1, amino acids 808-1132) of human JAK2; His (N); purchased BPS Bioscience 40450; host or cells: baculovirus expression system
Procedure, shortened: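 His-tagged JAK2 JH1 from baculovirus, 0.015 nM, incubated with compound, ATP at 30 μM or 1 mM and 500 nM biotinylated peptide, pH 7.5, 60 min at 25° C. HTRF read-out via Eu-anti-phosphotyrosine and streptavidin-APC after EDTA stop; IC50 from four-parameter dose-response fit.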

T2 sequence (O60674 536-812 V617F/W659A/W777A/F794H): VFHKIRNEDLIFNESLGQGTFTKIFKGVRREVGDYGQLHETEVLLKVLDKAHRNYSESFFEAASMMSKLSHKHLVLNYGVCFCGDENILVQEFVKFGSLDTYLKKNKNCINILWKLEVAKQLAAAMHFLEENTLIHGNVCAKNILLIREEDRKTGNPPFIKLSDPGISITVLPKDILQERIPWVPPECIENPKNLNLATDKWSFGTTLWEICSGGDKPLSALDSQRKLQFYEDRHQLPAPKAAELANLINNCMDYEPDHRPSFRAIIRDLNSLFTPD
T3 sequence (O60674 826-1132): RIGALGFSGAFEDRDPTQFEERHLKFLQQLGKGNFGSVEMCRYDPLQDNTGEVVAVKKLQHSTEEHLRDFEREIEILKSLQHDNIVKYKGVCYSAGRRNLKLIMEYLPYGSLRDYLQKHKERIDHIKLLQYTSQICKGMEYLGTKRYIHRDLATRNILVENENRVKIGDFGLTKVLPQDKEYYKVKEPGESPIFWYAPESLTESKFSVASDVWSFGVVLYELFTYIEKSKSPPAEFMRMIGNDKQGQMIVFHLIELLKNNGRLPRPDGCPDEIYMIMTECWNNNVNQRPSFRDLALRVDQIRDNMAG
T1 sequence (O60674 536-812 W659A/W777A/F794H): as the sequence (O60674 536-812 V617F/W659A/W777A/F794H) above, with F82V counted along it
T4 sequence (O60674 808-1132): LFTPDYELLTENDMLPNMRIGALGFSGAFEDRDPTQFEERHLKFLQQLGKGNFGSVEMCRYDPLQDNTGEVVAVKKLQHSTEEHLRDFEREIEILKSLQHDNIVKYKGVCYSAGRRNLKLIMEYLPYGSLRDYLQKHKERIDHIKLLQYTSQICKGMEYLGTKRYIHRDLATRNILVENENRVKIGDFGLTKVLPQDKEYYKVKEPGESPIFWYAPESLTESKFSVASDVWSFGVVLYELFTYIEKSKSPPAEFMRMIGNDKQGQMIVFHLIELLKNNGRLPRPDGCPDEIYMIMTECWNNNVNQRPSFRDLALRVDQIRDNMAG

Row | SMILES | IC50 [1] | IC50 [2] | IC50 [3] | IC50 [4]
1 | CCS(=O)(=O)N1CC2(C1)CC1(C2)C(=O)N(C)c2cnc3[nH]c(-c4cnn5c4CCC5)c(-c4ccc5c(cnn5C)c4)c3c21 [Example 94, 2″-(5,6-Dihydro-4H-pyrrolo[l,2-b]pyrazol-3-yl)-1-(ethylsulfonyl)-6″-methyl-1″-(1-methyl-1H-indazol-5-yl)-3″,6″-dihydro-7″-dispiro[azetidine-3,1′-cyclobutane-3′,8″-dipyrrolo[2,3-b:3′,2′-d]pyridin]-7″-one, trifluoroacetate salt] | ≤ 100 nM | ≤ 100 nM | > 2500 nM | > 2500 nM
2 | O=C(O)C(F)(F)F.[2H]C([2H])([2H])N1C(=O)C2(CC3(CN(S(=O)(=O)CC)C3)C2)c2c1cnc1[nH]c(-c3cnn(CC)c3)c(-c3ccc(OC)cc3)c21 [Example 95, 2″-(1-Ethyl-1H-pyrazol-4-yl)-1-(ethylsulfonyl)-1″-(4-methoxyphenyl)-6″-(methyl-d3)-3″,6″-dihydro-7″H-dispiro[azetidine-3,1′-cyclobutane-3′,8″-dipyrrolo[2,3-b:3′,2′-d]pyridin]-7″-one, trifluoroacetate salt] | ≤ 100 nM | ≤ 100 nM | 500 to 1250 nM | 500 to 1250 nM
3 | O=C(O)C(F)(F)F.[2H]C([2H])([2H])n1ncc2cc(-c3c(-c4cnn(CC(C)(C)OC)c4)[nH]c4ncc5c(c34)C3(CC4(CN(S(=O)(=O)CC)C4)C3)C(=O)N5C)ccc21 [Example 96, 1-(Ethylsulfonyl)-2″-(1-(2-methoxy-2-methylpropyl)-1H-pyrazol-4-yl)-6″-methyl-1″-(1-(methyl-d3)-1H-indazol-5-yl)-3″,6″-dihydro-7″H-dispiro[azetidine-3,1′-cyclobutane-3′,8″-dipyrrolo[2,3-b:3′,2′-d]pyridin]-7″-one, trifluoroacetate salt] | ≤ 100 nM | ≤ 100 nM | > 2500 nM | > 2500 nM
4 | CCS(=O)(=O)N1CC2(C1)CC1(C2)C(=O)N(C)c2cnc3[nH]c(-c4cnn(CC5CCOCC5)c4)c(-c4ccc5c(cnn5C)c4)c3c21 [Example 97, 1-(Ethylsulfonyl)-6″-methyl-1″-(1-methyl-1H-indazol-5-yl)-2″-(1-((tetrahydro-2H-pyran-4-yl)methyl)-1H-pyrazol-4-yl)-3″,6″-dihydro-7″H-dispiro[azetidine-3,1′-cyclobutane-3′,8″-dipyrrolo[2,3-b:3′,2′-d]pyridin]-7″-one, trifluoroacetate salt] | ≤ 100 nM | ≤ 100 nM | 1250 to 2500 nM | 1250 to 2500 nM
